Where no end group is shown, it is not given here.
Key:
STAT1 = STAT1 activation in cytokine-stimulated macrophages (Western blot); type: cell-based, murine; details: pre-incubation 50-150 ug/mL (Mut 150 ug/mL), IFNγ and IL-6 stimulation
Procedure: (§1) RAW264.7 macrophages and vascular smooth muscle cells (VSMC) cultured in a medium with 10% fetal bovine serum were used. The cells were synchronized (24 hours without serum), pre-incubated for 90 minutes with different peptide concentrations (miS1 or the control thereof, 50-150 μg/mL) and stimulated with cytokines (IFNγ […]). STAT activation was analyzed by means of Western blot for phosphorylated STAT1/STAT3 isoforms. JAK/STAT pathway-dependent chemokine (CCL2) expression was determined by means of ELISA. Cell viability was analyzed by MTT colorimetric assay and macrophage migration was analyzed by chemotaxis assay.

STAT3 = STAT3 activation in cytokine-stimulated macrophages (Western blot); type: cell-based, murine; details: pre-incubation 50-150 ug/mL (Mut 150 ug/mL), IFNγ and IL-6 stimulation
Procedure: as §1

Mut: non-functional mutated peptide, F substituted with A: SEQ ID NO 3 DTHARTARSHSDYRRI, bound to lysine-palmitate; control of the experiments (not fully specified (N-terminus)) [reference compound]
STAT1 activation (phosphorylation) (STAT1): did not cause any effect
STAT3 activation (phosphorylation) (STAT3): did not cause any effect

From patent publication US10532082B2, “SOCS1-derived peptide for use in chronic complications of diabetes” (Fundació Hospital Universitari Vall d'Hebron-Institut de …, priority 2014, dated 2020)
